Measured values published in PubChem BioAssay (NCI).
Where “and” joins values, the source holds several entries; their conditions need not be identical. Equal entries are not always repeated.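 96-well plates; 48 h exposure; 5 concentrations. Endpoints by linear interpolation between flanking doses. Not reached: highest tested concentration assigned. GI50 marks 50% less growth. TGI: total growth inhibition.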

Columns and labels:
Experiment in all cases: inhibition of tumour cell growth, NCI panel, 48 h
[1] = test system: UO-31 renal
[2] = test system: SNB-75 CNS
[3] = test system: EKVX NSCLC
[4] = test system: K-562 leukemia
[5] = test system: M14 melanoma
[6] = test system: A498 renal
[7] = test system: RPMI-8226 leukemia
[8] = test system: SR leukemia
[9] = test system: OVCAR-4 ovarian
[10] = test system: DU-145 prostate

| Structure (SMILES) | GI50 [1] | TGI [1] | GI50 [2] | TGI [2] | GI50 [3] | TGI [3] | GI50 [4] | TGI [4] | GI50 [5] | TGI [5] | GI50 [6] | TGI [6] | GI50 [7] | TGI [7] | GI50 [8] | TGI [8] | GI50 [9] | TGI [9] | GI50 [10] | TGI [10] |
| --- | --- | --- | --- | --- | --- | --- | --- | --- | --- | --- | --- | --- | --- | --- | --- | --- | --- | --- | --- | --- |
| O=C1CSC(c2ccccc2O)N1c1nnc(Cn2ccnc2)o1 (stereo not drawn) | 4.35 µM | > 100 µM | 11.6 µM | > 100 µM | 3.5 µM | 20 µM | 4.36 µM | > 100 µM | 7.97 µM | 43.9 µM | 21 µM | 46 µM | 3.52 µM | 24.4 µM | 2.93 µM | > 100 µM | 4.51 µM | 37.2 µM | 17.5 µM | 56.6 µM |
| COc1cccc(CC(C)=C(c2ccc(OCCCN(C)C)cc2)c2ccc(OCCCN(C)C)cc2)c1 | 0.424 µM | 0.795 µM | 0.619 µM | 1.77 µM | 1.64 µM | 5.17 µM | 0.484 µM | 1.16 µM | 0.461 µM | 0.864 µM | 3.19 µM | 6.37 µM | 0.55 µM | 1.29 µM | 0.44 µM | 1.21 µM | 0.575 µM | 1.41 µM | 0.694 µM | 1.82 µM |
| O=C1CCC(N2C(=O)c3cccc(NCCCC4CCN(CCNC(=O)c5cc6c(o5)C(=O)c5ccccc5C6=O)CC4)c3C2=O)C(=O)N1 (stereo not drawn) | 1.37 µM | 2.91 µM | 1.53 µM | 2.88 µM | 1.5 µM | 3.34 µM | 0.654 µM | 6.3 µM | 0.161 µM | 0.309 µM | 1.41 µM | 2.75 µM | 1.7 µM | 20.9 µM | 0.106 µM | > 30.1 µM | 0.747 µM | 2.08 µM | 0.185 µM | 0.344 µM |
| O=C(Nc1ccccc1Cl)c1cccc(NC2=C(Cl)C(=O)N(Cc3ccccc3)C2=O)c1 | 4.91 µM | 53.8 µM | 3.55 µM | > 100 µM | 88.3 µM | > 100 µM | 2.67 µM | 35.3 µM | 9.32 µM | 29.5 µM | 24.6 µM | 89.9 µM | 3.1 µM | 20.6 µM | 1.12 µM | 3.39 µM | 3.63 µM | 75.8 µM | 28.5 µM | > 100 µM |
| O=c1cccc(C#CC#CCCCO)o1 | 2.17 µM | > 100 µM | 18.2 µM | 66.3 µM | 3 µM | 7.6 µM | 4.08 µM | > 100 µM | 4.76 µM | 21.5 µM | 23.7 µM | 40.5 µM | – | > 26.7 µM | 0.158 µM | 2.37 µM | 8.59 µM | > 57.9 µM | 2.37 µM | 5.86 µM |
| C=C1CC[C@@H]2[C@](C)(COC(C)=O)[C@H](OC(C)=O)CC[C@@]2(C)[C@@H]1CC(Nc1ccc(S(=O)(=O)Nc2nccs2)cc1)C1=CCOC1=O (stereo partly drawn) | 4.07 µM | 16.1 µM | 2.83 µM | 15.6 µM | 14 µM | 27 µM | 3.6 µM | 29 µM | 2.83 µM | 10.5 µM | 18.2 µM | 32.6 µM | 2.49 µM | 7.62 µM | 1.33 µM | > 100 µM | 4.53 µM | 17.7 µM | 4.47 µM | 15.8 µM |
| C[C@H]1c2ccccc2CN1CCCOc1cc2c(cc1OCC1CC1)C1(CCCC1)C(N)=N2 | 1.02 µM | 3.04 µM | 0.994 µM | 4.86 µM | 4.33 µM | 10.8 µM | 0.871 µM | 2.46 µM | 0.932 µM | 1.81 µM | 1.56 µM | 5.69 µM | 1.01 µM | 3.13 µM | 1.15 µM | 2.87 µM | 1.83 µM | 7.42 µM | 2.66 µM | 8.63 µM |
| Clc1ccccc1NN(Cc1ccncc1)c1ccccc1Cl | – | 63.3 µM | – | 32.1 µM | – | 30.1 µM | – | 30.2 µM | – | 35.7 µM | – | 33.7 µM | – | 42.2 µM | – | 32.2 µM | – | 25.2 µM | – | 34.8 µM |
| O=C1c2ccccc2C(=O)N1C1(C(=O)NC2(C(=O)O)CCCC2)CCCC1 | – | > 100 µM | – | > 100 µM | – | > 100 µM | – | > 100 µM | – | > 100 µM | – | > 100 µM | – | > 100 µM | – | > 100 µM | – | > 100 µM | – | > 100 µM |
| C=CCn1c(=O)c2cnc(Nc3ccc(N4CCN(C)CC4)cc3)nc2n1-c1cccc(C(C)(C)O)n1 | 0.338 µM and 0.28 µM | 7.47 µM and > 10 µM | 1.44 µM and 0.717 µM | 8.68 µM and 6.37 µM | 0.97 µM and 1.36 µM | 30.1 µM and > 10 µM | 0.315 µM and 0.282 µM | 17.8 µM and > 7.64 µM | 0.191 µM and 0.213 µM | 11.2 µM and > 5.86 µM | 0.0319 µM and 0.0572 µM | 0.364 µM and 0.448 µM | 1.65 µM and 1.52 µM | 5.61 µM and 6.22 µM | 0.269 µM and 0.253 µM | 1.67 µM and 2.07 µM | 0.373 µM and 0.507 µM | 28.7 µM and > 10 µM | 0.872 µM and 0.678 µM | 18 µM and > 10 µM |
| Cn1nnc2c(C(N)=O)ncn2c1=O | – | > 100 µM | – | > 100 µM | – | > 100 µM | – | > 100 µM | – | > 100 µM | > 100 µM | > 100 µM | – | > 100 µM | – | > 100 µM | – | > 100 µM | – | > 100 µM |
| CC1(C)CC2=C(Sc3ccccc3N2)C(=O)C1C(=O)C(=O)Nc1cc(Cl)ccc1Cl (stereo not drawn) | – | > 100 µM | – | > 100 µM | – | > 100 µM | – | > 100 µM | – | > 100 µM | – | > 100 µM | – | > 100 µM | – | > 100 µM | – | > 100 µM | – | > 100 µM |
| C[C@@H]1COCCN1c1cc(-c2ccnn2C)c2ccnc(-c3ccn[nH]3)c2n1 | 0.0741 µM and 0.152 µM | 0.792 µM and 1.92 µM | 0.087 µM and 0.219 µM | 0.596 µM and 1.8 µM | 0.205 µM and 0.349 µM | 8.11 µM and > 28.6 µM | 0.0844 µM and 0.384 µM | > 100 µM | 0.0291 µM and 0.0471 µM | – | 0.0212 µM and 0.0373 µM | 0.0838 µM and 0.226 µM | 0.177 µM and 0.202 µM | 3.01 µM and 5.4 µM | 0.0241 µM and 0.103 µM | – | 0.109 µM and 0.181 µM | 1.74 µM | 0.0992 µM and 0.202 µM | > 100 µM |
| COc1cc(/C=C/[N+](=O)[O-])cc(OC)c1OC | 2.05 µM | 3.91 µM | 2.4 µM | 6.11 µM | 13.6 µM | 28.4 µM | 2.81 µM | > 100 µM | 2.07 µM | 4.31 µM | 3.31 µM | 14.6 µM | 3.14 µM | 8.59 µM | 3.36 µM | 12.5 µM | 3.22 µM | 11.5 µM | 2.69 µM | 6.31 µM |
| CCSc1nc(N)c(C#N)c(-c2ccco2)c1C#N | 56.1 µM | > 100 µM | > 100 µM | > 100 µM | 25.4 µM | > 100 µM | 43.7 µM | > 100 µM | 48.1 µM | > 100 µM | 26.5 µM | > 100 µM | 12.2 µM | 42.4 µM | 20.2 µM | > 100 µM | > 100 µM | > 100 µM | 42.6 µM | > 100 µM |
| CC1=C(Cl)C[C@@H](/C(C)=C\Cl)O[C@@]1(O)C(Br)Br | – | 72.7 µM | – | > 100 µM | – | 80.3 µM | – | > 100 µM | – | 67.7 µM | – | 98.4 µM | – | 65.8 µM | – | 84.6 µM | – | > 100 µM | – | 49.9 µM |
